Publication PMC4676410 (Journal of medicinal chemistry, 2015)
Read-outs that look alike come from different tables or passages of the source.

Columns and labels:
[1] = system: laboratory-adapted HIV-1 strains; assay: microbe, parasite or virus in culture; assay type: cell-based
HIV-1 Env pseudoviruses = assay type: cell-based; conditions: TZM-bl, HIV-1HXB2
[2] = system: fusion between MAGI-CCR5 and HL 2/3 cells; assay: HIV-1 cell-cell fusion assay; assay type: cell-based; conditions: read-out: IC50, cell-cell fusion assay
SHIVSF162P3 = assay: Antiviral activity against SHIV; assay type: cell-based; conditions: Table S2
YU2 core gp120 [3] = assay: SPR: binding of YU2 core gp120 to captured mAb 17b in presence of compounds; parameters: species or system HIV-1; conditions: sCD4 15-fold excess, compounds 50-fold excess
VSV-G = assay: microbe, parasite or virus in culture; assay type: cell-based; conditions: Human immunodeficiency virus 1
YU2 core gp120 [4] = assay: Competitive SPR: VRC-PG04 binding to immobilized YU2 core gp120; parameters: species or system HIV-1; conditions: at higher ratios of NBD-11021 versus VRC-PG04
YU2 core gp120 [5] = assay: Competitive SPR: sCD4 binding to immobilized YU2 core gp120; parameters: species or system HIV-1; conditions: NBD-11021 12.5-200 μM
HIV-1ADA = assay: CD4-dependent CCR5-tropic HIV-1 cell-cell transmission assay; assay type: cell-based; conditions: Ghost X4/R5 and MOLT-4/HIV-1ADA
SIVmac186 = assay: Antiviral activity against SIV; assay type: cell-based; conditions: Table S2
[6] = system: HIV-1HXB2 (CXCR4-tropic) pseudovirus; assay: Single-cycle infection assay in U87-CD4-CXCR4 cells; conditions: U87-CD4-CXCR4, HIV-1HXB2
HIV-1IIIB = assay: CD4-dependent CXCR4-tropic HIV-1 cell-cell transmission assay; assay type: cell-based; conditions: Ghost X4/R5 and H9/HIV-1IIIB
[7] = system: lab-adapted and primary HIV-1 isolates; assay: microbe, parasite or virus in culture; assay type: cell-based; conditions: Human immunodeficiency virus 1, PBMC, laboratory strain BaL, subtype B, R5
HIV-2 isolates = assay: Antiviral activity against HIV-2; assay type: cell-based; conditions: Table S2
A-MLV = assay: microbe, parasite or virus in culture; assay type: cell-based; conditions: Murine leukemia virus
[8] = system: HIV-1ADA (CCR5-tropic) pseudovirus; assay: Single-cycle infection assay in U87-CD4-CCR5 cells
[9] = Human immunodeficiency virus 1, MT2, MT-2, HIV-1IIIB

Cc1nc(C(NC(=O)c2ccc(-c3ccc(Cl)cc3)[nH]2)C2CCCCN2)sc1CO (centres unmarked) [NBD-11021B, 5-(4-Chlorophenyl)-N-((5-(hydroxymethyl)-4-methylthiazol-2-yl)-(piperidin-2-yl)methyl)-1H-pyrrole-2-carboxamide]
IC50 [1, 9]: 1800 ± 50 nM
IC50 (HIV-1 Env pseudoviruses): 2400 ± 100 nM

COc1ccnc2[nH]cc(C(=O)C(=O)N3CCN(C(=O)c4ccccc4)C[C@H]3C)c12 [BMS-378806]
IC50 ([2]; MAGI-CCR5 and HL 2/3 cells): 14 nM

Cc1nc(C(NC(=O)c2ccc(-c3ccc(Cl)cc3)[nH]2)C2CCCCN2)sc1CO (mixture of isomers) [NBD-11021, 5-(4-Chlorophenyl)-N-((5-(hydroxymethyl)-4-methylthiazol-2-yl)-(piperidin-2-yl)methyl)-1H-pyrrole-2-carboxamide]
activity against SHIVSF162P3 (in words) (SHIVSF162P3): poor activity
enhancement of mAb 17b binding to YU2 core gp120 (in words) (YU2 core gp120 [3]): no enhancement
IC50 (VSV-G): 10000 ± 500 nM
competition with VRC-PG04 for binding to gp120 (in words) (YU2 core gp120 [4]): effectively competed with VRC-PG04
competition with sCD4 for binding to gp120 (in words) (YU2 core gp120 [5]): competes with CD4 to bind to gp120 in a dose-dependent manner
inhibition of CCR5-tropic cell-cell transmission (in words) (HIV-1ADA): showed inhibition
activity against SIVmac186 (in words) (SIVmac186): poor activity
IC50 [6]: 2400 ± 100 nM
inhibition of CXCR4-tropic cell-cell transmission (in words) (HIV-1IIIB): inhibited cell–cell transmission effectively
IC50 [2]: 9800 nM
IC50 [1, 9]: 1500 ± 60 nM
IC50 ([1]; Human immunodeficiency virus 1, MT2, laboratory strain RF, subtype B, MT-2, R5X4): 7300 ± 600 nM
IC50 [7]: 3700 ± 400 nM
activity against HIV-2 isolates (in words) (HIV-2 isolates): poor activity
IC50 (A-MLV): 7500 ± 200 nM
IC50 ([8]; Pseudovirus, U87/CD4/CCR5, U87-CD4-CCR5, HIV-1ADA): 1700 ± 200 nM
IC50 ([8]; U87/CD4/CCR5, read-out: IC50 against CCR5- and CXCR4-tropic HIV-1): 1700 to 2400 nM
